US12655101B2, “Small molecules with antibacterial activity” (NEW MEXICO TECH UNIVERSITY RESEARCH PARK CORPORATION, priority 2021, dated 2026)
Values after ≈ are worked out from the molar mass of the structure shown. Like-named read-outs stand apart in the source and are kept apart here.

Experiments:
Type in all cases: cell-based
A. baumannii ATCC 15151 [1] = assay: Filamentation with ciprofloxacin and Compound 25 on A. baumannii; settings: 18 hours
Procedure: A. baumannii ATCC 15151: […] The culture tubes were incubated for 18 hours at 37° C. After 18 hours incubation, took 3 μL of cells from each well and plated on microscope slide to observe the following: […]

S. aureus = assay: Evolution of resistance in S. aureus over 32 days; settings: Staphylococcus aureus
Text: Over a period of 32 days, S. aureus cells were exposed to sub-inhibitory concentrations of the indicated compound, norfloxacin, or oxacillin and sub-cultured at the newly emerged, sub-inhibitory concentration.

[2] = system: A. baumannii ATCC BAA-1797; assay: MIC on A. baumannii ATCC BAA-1797; settings: Acinetobacter baumannii
Procedure: A. baumannii: A. baumannii ATCC BAA-1797 was grown from a glycerol stock by placing a small volume of cells onto a MHA plate. The MHA plate was incubated overnight at 37° C. A single colony was used to inoculate MHB to obtain a bacterial broth suspension. The MHB broth suspension was grown at 37° C. on a rotary shaking incubator (100 rpm) for 12 hours. The bacterial cell concentration was adjusted to ˜5×10^5 CFU/mL in MHB or MHB+10%, 20% or 40% FBS using OD at 595 nm. 500 μL aliquots of the adjusted bacterial cell suspension were placed into borosilicate glass tubes. The cell suspensions were treated with a compound of interest, and the treatments were serially diluted two-fold. The culture tubes were incubated for 18 hours at 37° C. Efficacy was either assessed visually or by adding 10% v/v MTT (5 mg/mL stock) after the 18 hour incubation period. The cell suspensions were subsequently incubated for 10 minutes to allow the MTT reagent to carry out the colorimetric reaction. The OD was read at 595 nm.

[3] = system: UmuC (error-prone polymerase); assay: UmuC gene expression by rtPCR in S. aureus; settings: sub-inhibitory norfloxacin
Text: RecA and error-prone polymerase subunit UmuC transcripts were quantitatively measured using rtPCR in S. aureus. S. aureus was challenged with sub-inhibitory concentrations of DNA-damaging norfloxacin.

A. baumannii ATCC 15151 [4] = assay: DNA degradation (agarose gel), drug-sensitive strain; settings: 1.5% H2O2, 10 μg/mL ciprofloxacin, 100 μM Compound 25; 3 hours
E. coli pUC18 = assay: Nitrocefin β-lactamase assay (outer membrane disruption); settings: 10 μM melittin; 10 μg/mL PME; 6, 12, 24 μM Compound 25 and 26; 100 μM Compound 27; 50 μM Compound 15; 30 minutes
Procedure: E. coli pUC18 was grown from a glycerol stock by placing a small volume of cells onto a MHA plate. The MHA plate was incubated overnight at 37° C. A single colony was subsequently used to inoculate MHB+100 μg/mL ampicillin to obtain a bacterial broth suspension. The MHB broth suspension was grown at 37° C. on a rotary shaking incubator (100 rpm) for 12 hours. The cells were washed 3× by centrifuging and washing with 1 mL medium 200. The washed bacterial cell concentration was adjusted to ˜1×10^7 CFU/mL in medium 200 using OD at 595 nm. The cells were treated cells with 10 μM melittin; 6, 12, 24 μM Compound 25; 6 μM, 12 μM, 24 μM Compound 26; 100 μM Compound 27; 50 μM Compound 15; and 10 μg/mL PME. The cells were incubated at 37° C. for 30 minutes; added 50 μM nitrocefin and incubated 10 minutes at 37° C.
pUC18 E. coli carry an ampicillin resistance gene and produce β-lactamase.

E. coli pNMT41 = assay: 6-chloro-4-methyl-umbelliferyl-β-D-glucuronide assay for beta-glucuronidase (inner membrane disruption); settings: 10 μg/mL PME
Procedure: E. coli pNMT 41 was grown from a glycerol stock by placing a small volume of cells onto a MHA plate. The MHA plate was incubated overnight at 37° C. A single colony was subsequently used to inoculate MHB+100 μg/mL ampicillin to obtain a bacterial broth suspension. The MHB broth suspension was grown at 37° C. on a rotary shaking incubator (100 rpm) for 12 hours. The bacterial cell concentration was adjusted to ˜1×10^7 CFU/mL in MHB using OD at 595 nm. The cells were washed 3× by spinning by centrifuge and washing with 500 μL medium 200. The cells were resuspended in 7 mL medium 200. The cells were treated with 10 μM melittin, 6, 12, 24, and 100 μM Compound 25, and 10 μg/mL PME. The cells were incubated at 37° C. for 30 minutes. 1 μM umbelliferyl was added, and the cells were incubated further for 10 minutes at 37° C.
The cells were then incubated at 37° C. for 45 minutes. 1 μM umbelliferyl was added, and the cells were incubated further for 10 minutes at 37° C.

[5] = system: A. baumannii ATCC BAA-1797; assay: Colony counts of A. baumannii ATCC BAA-1797 treated with 4xMIC for 16 hours; settings: 1 μg/mL PME, 1 mM PAO, compounds at 4xMIC
[6] = 10 μM melittin, 6, 12, 24, 100 μM Compound 25, 30 minutes

Compound: O=C(O)c1cn(C2CC2)c2cc(N3CCNCC3)c(F)cc2c1=O [Ciprofloxacin, reference compound]
- cell morphology and growth (A. baumannii ATCC 15151 [1]; 125 ng/mL ciprofloxacin): largely elongated in morphology and growth inhibition was observed
- cell morphology and growth (A. baumannii ATCC 15151 [1]; single agent: 50 ng/mL ciprofloxacin or […] Compound 25): slightly elongated and some growth inhibition was observed

Compound: COc1ccc(/N=N/c2c(-c3ccc(OC)cc3)[nH]c3ccccc23)cc1 [Compound 46, (E)-2-(4-methoxyphenyl)-3-((4-methoxyphenyl)diazenyl)-1H-indole]
- MIC (S. aureus; 0 h, read-out: Initial MIC Day 0): 1 to 2 µM (≈ 0.357 to 0.715 µg/mL)
- MIC (S. aureus; read-out: Final MIC Day 32): 1 to 2 µM (≈ 0.357 to 0.715 µg/mL)
- MIC ([2]; ATCCBAA1797, 18 h, read-out: MIC in the presence of 40% FBS, A. baumannii ATCC BAA-1797, 40% FBS): > 100 µM
- MIC ([2]; ATCCBAA1797, A. baumannii ATCC BAA-1797, absence of serum, read-out: MIC in the absence of serum): > 100 µM
- UmuC (error-prone polymerase) gene expression [3]: transcriptional inhibition

Compound: OO [Compound H2O2, hydrogen peroxide, reference compound]
- DNA degradation (A. baumannii ATCC 15151 [4]): degraded DNA completely

Compound: CC[C@H](C)[C@H](NC(=O)CN)C(=O)NCC(=O)N[C@@H](C)C(=O)N[C@H](C(=O)N[C@@H](CC(C)C)C(=O)N[C@@H](CCCCN)C(=O)N[C@H](C(=O)N[C@@H](CC(C)C)C(=O)N[C@H](C(=O)N[C@H](C(=O)NCC(=O)N[C@@H](CC(C)C)C(=O)N1CCC[C@H]1C(=O)N[C@@H](C)C(=O)N[C@@H](CC(C)C)C(=O)N[C@H](C(=O)N[C@@H](CO)C(=O)N[C@@H](Cc1c[nH]c2ccccc12)C(=O)N[C@H](C(=O)N[C@@H](CCCCN)C(=O)N[C@@H](CCCNC(=N)N)C(=O)N[C@@H](CCCCN)C(=O)N[C@@H](CCCNC(=N)N)C(=O)N[C@@H](CCC(N)=O)C(=O)N[C@@H](CCC(N)=O)C(N)=O)[C@@H](C)CC)[C@@H](C)CC)[C@@H](C)O)[C@@H](C)O)C(C)C)C(C)C [Melittin, melittin]
- outer membrane disruption (β-lactamase leakage, nitrocefin colour) (E. coli pUC18): high concentration of β-lactamase in the supernatant
- inner membrane disruption (GUS fluorescence) (E. coli pNMT41; [6]): disrupt inner membrane

Compound: polymyxin E [PME]
- cell viability after 16 hours of treatment [5]: cells were still viable
- outer membrane disruption (β-lactamase leakage, nitrocefin colour) (E. coli pUC18): high concentration of β-lactamase in the supernatant
- inner membrane disruption (GUS fluorescence) (E. coli pNMT41; [6]): disrupt inner membrane
- inner membrane disruption (GUS fluorescence) (E. coli pNMT41; separate experiment, 12.5 μM Compound 14, 45 minutes): disrupts inner membrane
